Test results from ChEMBL document CHEMBL1201862, “PubChem BioAssay data set” (2004).
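Briefly, cells in 96-well plates were exposed to five compound concentrations for 48 h, and endpoints were estimated by linear interpolation. Abbreviation: GI50, concentration required for 50% inhibition of growth.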 Calls of active or inactive are those of the source. No stated cut-off is given here; in the data, active = GI50 up to about 1.1 µM and inactive = higher.

How the values were obtained:
Assay in all cases: NCI-60 cell line screen, 48 h
786-0 = test system: 786-0
SN12C = test system: SN12C
A549 = test system: A549
ACHN = test system: ACHN
T47D = test system: T47D
CAKI-1 = test system: CAKI-1
KM12 = test system: KM12
HCT-15 = test system: HCT-15
COLO 205 = test system: COLO 205
HOP-62 = test system: HOP-62
RPMI-8226 = test system: RPMI-8226
MCF7 = test system: MCF7
U-251 = test system: U-251
MOLT-4 = test system: MOLT-4
SF-295 = test system: SF-295
RXF 393 = test system: RXF 393
LOX IMVI = test system: LOX IMVI
SNB-19 = test system: SNB-19
M14 = test system: M14
EKVX = test system: EKVX
BT-549 = test system: BT-549
NCI/ADR-RES = test system: NCI/ADR-RES
OVCAR-3 = test system: OVCAR-3
NCI-H226 = test system: NCI-H226
HOP-92 = test system: HOP-92
TK-10 = test system: TK-10
IGROV-1 = test system: IGROV-1
UO-31 = test system: UO-31
K562 = test system: K562
SF-539 = test system: SF-539
SK-MEL-5 = test system: SK-MEL-5
OVCAR-4 = test system: OVCAR-4
HCT-116 = test system: HCT-116
NCI-H460 = test system: NCI-H460
A498 = test system: A498
SNB-75 = test system: SNB-75
OVCAR-8 = test system: OVCAR-8
MDA-MB-231 = test system: MDA-MB-231
PC-3 = test system: PC-3
MDA-N = test system: MDA-N
UACC-257 = test system: UACC-257
SF-268 = test system: SF-268
SW-620 = test system: SW-620
NCI-H23 = test system: NCI-H23
NCI-H522 = test system: NCI-H522
OVCAR-5 = test system: OVCAR-5
SK-OV-3 = test system: SK-OV-3
SK-MEL-28 = test system: SK-MEL-28
HCC 2998 = test system: HCC 2998
SK-MEL-2 = test system: SK-MEL-2
Malme-3M = test system: Malme-3M
MDA-MB-435 = test system: MDA-MB-435
Hs-578T = test system: Hs-578T
HT-29 = test system: HT-29
HL-60 = test system: HL-60
UACC-62 = test system: UACC-62
CCRF-CEM = test system: CCRF-CEM
DU-145 = test system: DU-145
SR = test system: SR

Compound: Brc1ccc2c(c1)-c1nc3nc4c(cc3cc1CC2)CCc1ccc(Br)cc1-4
- GI50 (786-0): > 100 µM (inactive)
- GI50 (SN12C): > 100 µM (inactive)
- GI50 (A549): > 100 µM (inactive)
- GI50 (ACHN): > 100 µM (inactive)
- GI50 (T47D): > 100 µM (inactive)
- GI50 (CAKI-1): > 100 µM (inactive)
- GI50 (KM12): 62.7 µM (inactive)
- GI50 (HCT-15): > 100 µM
- GI50 (COLO 205): > 100 µM (inactive)
- GI50 (HOP-62): > 100 µM (inactive)
- GI50 (RPMI-8226): > 100 µM (inactive)
- GI50 (MCF7): > 100 µM (inactive)
- GI50 (U-251): > 100 µM (inactive)
- GI50 (MOLT-4): > 100 µM (inactive)
- GI50 (SF-295): > 100 µM (inactive)
- GI50 (RXF 393): > 100 µM (inactive)
- GI50 (LOX IMVI): > 100 µM (inactive)
- GI50 (SNB-19): > 100 µM (inactive)
- GI50 (M14): > 100 µM (inactive)
- GI50 (EKVX): > 100 µM (inactive)
- GI50 (BT-549): > 100 µM (inactive)
- GI50 (NCI/ADR-RES): > 100 µM (inactive)
- GI50 (OVCAR-3): > 100 µM (inactive)
- GI50 (NCI-H226): > 100 µM (inactive)
- GI50 (HOP-92): > 100 µM (inactive)
- GI50 (TK-10): > 100 µM (inactive)
- GI50 (IGROV-1): > 100 µM (inactive)
- GI50 (UO-31): > 100 µM (inactive)
- GI50 (K562): > 100 µM (inactive)
- GI50 (SF-539): > 100 µM (inactive)
- GI50 (SK-MEL-5): > 100 µM (inactive)
- GI50 (OVCAR-4): 0.47 µM (active)
- GI50 (HCT-116): > 100 µM (inactive)
- GI50 (NCI-H460): > 100 µM (inactive)
- GI50 (A498): > 100 µM (inactive)
- GI50 (SNB-75): > 100 µM (inactive)
- GI50 (OVCAR-8): > 100 µM (inactive)
- GI50 (MDA-MB-231): > 100 µM (inactive)
- GI50 (PC-3): > 100 µM (inactive)
- GI50 (MDA-N): > 100 µM (inactive)
- GI50 (UACC-257): > 100 µM (inactive)
- GI50 (SF-268): > 100 µM (inactive)
- GI50 (SW-620): > 100 µM (inactive)
- GI50 (NCI-H23): > 100 µM (inactive)
- GI50 (NCI-H522): > 100 µM (inactive)
- GI50 (OVCAR-5): > 100 µM (inactive)
- GI50 (SK-OV-3): > 100 µM (inactive)
- GI50 (SK-MEL-28): > 100 µM (inactive)
- GI50 (HCC 2998): > 100 µM (inactive)
- GI50 (SK-MEL-2): > 100 µM (inactive)
- GI50 (Malme-3M): > 100 µM (inactive)
- GI50 (MDA-MB-435): 5.65 µM (inactive)

Compound: COc1ccc(-c2c(C(=O)Nc3ccccc3)c(-c3ccccc3)n(C3OC(CO)C(O)C(O)C3O)c(=S)c2C#N)cc1 (stereo not given)
- GI50 (786-0): > 100 µM (inactive)
- GI50 (SN12C): > 100 µM (inactive)
- GI50 (A549): > 100 µM (inactive)
- GI50 (ACHN): > 100 µM (inactive)
- GI50 (CAKI-1): > 100 µM (inactive)
- GI50 (KM12): > 100 µM (inactive)
- GI50 (HCT-15): > 100 µM
- GI50 (COLO 205): > 100 µM (inactive)
- GI50 (Hs-578T): > 100 µM (inactive)
- GI50 (HT-29): > 100 µM (inactive)
- GI50 (HOP-62): > 100 µM (inactive)
- GI50 (RPMI-8226): > 100 µM (inactive)
- GI50 (MCF7): > 100 µM (inactive)
- GI50 (U-251): > 100 µM (inactive)
- GI50 (HL-60): > 100 µM (inactive)
- GI50 (MOLT-4): > 100 µM (inactive)
- GI50 (UACC-62): > 100 µM (inactive)
- GI50 (CCRF-CEM): > 100 µM (inactive)
- GI50 (SF-295): > 100 µM (inactive)
- GI50 (RXF 393): > 100 µM (inactive)
- GI50 (LOX IMVI): > 100 µM (inactive)
- GI50 (SNB-19): > 100 µM (inactive)
- GI50 (M14): > 100 µM (inactive)
- GI50 (EKVX): > 100 µM (inactive)
- GI50 (BT-549): 0.719 µM (active)
- GI50 (NCI/ADR-RES): > 100 µM (inactive)
- GI50 (OVCAR-3): > 100 µM (inactive)
- GI50 (NCI-H226): > 100 µM (inactive)
- GI50 (HOP-92): > 100 µM (inactive)
- GI50 (IGROV-1): > 100 µM (inactive)
- GI50 (UO-31): > 100 µM (inactive)
- GI50 (K562): > 100 µM (inactive)
- GI50 (SK-MEL-5): > 100 µM (inactive)
- GI50 (OVCAR-4): > 100 µM (inactive)
- GI50 (HCT-116): > 100 µM (inactive)
- GI50 (NCI-H460): > 100 µM (inactive)
- GI50 (A498): > 100 µM (inactive)
- GI50 (OVCAR-8): > 100 µM (inactive)
- GI50 (PC-3): > 100 µM (inactive)
- GI50 (MDA-N): > 100 µM (inactive)
- GI50 (UACC-257): > 100 µM (inactive)
- GI50 (SF-268): > 100 µM (inactive)
- GI50 (SW-620): > 100 µM (inactive)
- GI50 (NCI-H23): > 100 µM (inactive)
- GI50 (NCI-H522): > 100 µM (inactive)
- GI50 (OVCAR-5): > 100 µM (inactive)
- GI50 (SK-MEL-28): > 100 µM (inactive)
- GI50 (HCC 2998): > 100 µM (inactive)
- GI50 (DU-145): > 100 µM (inactive)
- GI50 (Malme-3M): > 100 µM (inactive)
- GI50 (MDA-MB-435): > 100 µM (inactive)
- GI50 (SR): > 100 µM (inactive)

Compound: O=C(O)c1cnc2[nH]ccn2c1=O
- GI50 (786-0): > 100 µM (inactive)
- GI50 (SN12C): > 100 µM (inactive)
- GI50 (A549): > 100 µM (inactive)
- GI50 (ACHN): > 100 µM (inactive)
- GI50 (T47D): > 100 µM (inactive)
- GI50 (HCT-15): > 100 µM
- GI50 (COLO 205): > 100 µM (inactive)
- GI50 (HT-29): > 100 µM (inactive)
- GI50 (HOP-62): > 100 µM (inactive)
- GI50 (RPMI-8226): > 100 µM (inactive)
- GI50 (MCF7): > 100 µM (inactive)
- GI50 (U-251): > 100 µM (inactive)
- GI50 (HL-60): > 100 µM (inactive)
- GI50 (MOLT-4): > 100 µM (inactive)
- GI50 (UACC-62): > 100 µM (inactive)
- GI50 (CCRF-CEM): > 100 µM (inactive)
- GI50 (SF-295): > 100 µM (inactive)
- GI50 (SNB-19): > 100 µM (inactive)
- GI50 (M14): > 100 µM (inactive)
- GI50 (EKVX): > 100 µM (inactive)
- GI50 (BT-549): > 100 µM (inactive)
- GI50 (NCI/ADR-RES): > 100 µM (inactive)
- GI50 (OVCAR-3): > 100 µM (inactive)
- GI50 (NCI-H226): > 100 µM (inactive)
- GI50 (HOP-92): > 100 µM (inactive)
- GI50 (TK-10): > 100 µM (inactive)
- GI50 (IGROV-1): > 100 µM (inactive)
- GI50 (UO-31): > 100 µM (inactive)
- GI50 (K562): > 100 µM (inactive)
- GI50 (SK-MEL-5): > 100 µM (inactive)
- GI50 (OVCAR-4): > 100 µM (inactive)
- GI50 (HCT-116): > 100 µM (inactive)
- GI50 (NCI-H460): > 100 µM (inactive)
- GI50 (A498): > 100 µM (inactive)
- GI50 (SNB-75): > 100 µM (inactive)
- GI50 (OVCAR-8): > 100 µM (inactive)
- GI50 (MDA-MB-231): > 100 µM (inactive)
- GI50 (PC-3): > 100 µM (inactive)
- GI50 (MDA-N): > 100 µM (inactive)
- GI50 (UACC-257): > 100 µM (inactive)
- GI50 (SF-268): > 100 µM (inactive)
- GI50 (SW-620): > 100 µM (inactive)
- GI50 (NCI-H23): > 100 µM (inactive)
- GI50 (OVCAR-5): > 100 µM (inactive)
- GI50 (SK-OV-3): > 100 µM (inactive)
- GI50 (SK-MEL-28): > 100 µM (inactive)
- GI50 (HCC 2998): > 100 µM (inactive)
- GI50 (DU-145): > 100 µM (inactive)
- GI50 (Malme-3M): > 100 µM (inactive)
- GI50 (MDA-MB-435): > 100 µM (inactive)
- GI50 (SR): > 100 µM (inactive)
